Measurements reported in patent US11713338B2, “Cyclic peptides multimers targeting α-4-β-7 integrin” (priority 2016, dated 2023).

The molecules below were run against T1, integrin α4β7 (RPMI8866 human cells adhering to MAdCAM-1) (Homo sapiens, UniProt P13612+P26010) (assay: Integrin α4β7-MAdCAM cell adhesion assay (RPMI8866 cells)). Conditions: RPMI8866 cells adhering to MAdCAM; read-out: RPMI8866 Adhesion α4β7/MAdCAM IC50.
T1 construct: RMP18866 cells, which express integrin α4β7; host or cells: RPMI8866
T1 sequence (P13612 34-1032): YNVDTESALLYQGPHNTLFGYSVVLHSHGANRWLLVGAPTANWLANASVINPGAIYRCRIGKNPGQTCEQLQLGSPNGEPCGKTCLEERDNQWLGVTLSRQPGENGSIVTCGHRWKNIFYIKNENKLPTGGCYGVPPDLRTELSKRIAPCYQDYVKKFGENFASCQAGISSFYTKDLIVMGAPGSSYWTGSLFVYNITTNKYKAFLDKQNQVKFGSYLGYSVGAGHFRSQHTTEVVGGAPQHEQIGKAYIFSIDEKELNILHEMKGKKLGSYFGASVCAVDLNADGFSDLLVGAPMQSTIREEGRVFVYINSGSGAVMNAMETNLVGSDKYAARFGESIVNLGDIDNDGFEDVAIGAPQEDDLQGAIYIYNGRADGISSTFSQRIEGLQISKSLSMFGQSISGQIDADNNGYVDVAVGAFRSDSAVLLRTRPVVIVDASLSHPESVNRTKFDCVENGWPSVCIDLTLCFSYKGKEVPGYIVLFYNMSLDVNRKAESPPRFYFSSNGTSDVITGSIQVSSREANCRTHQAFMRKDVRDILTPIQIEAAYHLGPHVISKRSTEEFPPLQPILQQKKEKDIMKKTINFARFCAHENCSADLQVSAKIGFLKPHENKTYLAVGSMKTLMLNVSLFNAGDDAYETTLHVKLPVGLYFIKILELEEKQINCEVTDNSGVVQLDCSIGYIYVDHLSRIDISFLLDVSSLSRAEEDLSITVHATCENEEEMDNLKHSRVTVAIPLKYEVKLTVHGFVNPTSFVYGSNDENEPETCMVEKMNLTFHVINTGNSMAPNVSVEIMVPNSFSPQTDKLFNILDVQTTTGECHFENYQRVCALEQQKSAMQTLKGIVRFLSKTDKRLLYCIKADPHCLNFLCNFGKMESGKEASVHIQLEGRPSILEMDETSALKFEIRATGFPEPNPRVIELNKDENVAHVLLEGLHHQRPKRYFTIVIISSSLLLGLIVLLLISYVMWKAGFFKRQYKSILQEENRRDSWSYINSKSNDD
T1 sequence (P26010 20-798): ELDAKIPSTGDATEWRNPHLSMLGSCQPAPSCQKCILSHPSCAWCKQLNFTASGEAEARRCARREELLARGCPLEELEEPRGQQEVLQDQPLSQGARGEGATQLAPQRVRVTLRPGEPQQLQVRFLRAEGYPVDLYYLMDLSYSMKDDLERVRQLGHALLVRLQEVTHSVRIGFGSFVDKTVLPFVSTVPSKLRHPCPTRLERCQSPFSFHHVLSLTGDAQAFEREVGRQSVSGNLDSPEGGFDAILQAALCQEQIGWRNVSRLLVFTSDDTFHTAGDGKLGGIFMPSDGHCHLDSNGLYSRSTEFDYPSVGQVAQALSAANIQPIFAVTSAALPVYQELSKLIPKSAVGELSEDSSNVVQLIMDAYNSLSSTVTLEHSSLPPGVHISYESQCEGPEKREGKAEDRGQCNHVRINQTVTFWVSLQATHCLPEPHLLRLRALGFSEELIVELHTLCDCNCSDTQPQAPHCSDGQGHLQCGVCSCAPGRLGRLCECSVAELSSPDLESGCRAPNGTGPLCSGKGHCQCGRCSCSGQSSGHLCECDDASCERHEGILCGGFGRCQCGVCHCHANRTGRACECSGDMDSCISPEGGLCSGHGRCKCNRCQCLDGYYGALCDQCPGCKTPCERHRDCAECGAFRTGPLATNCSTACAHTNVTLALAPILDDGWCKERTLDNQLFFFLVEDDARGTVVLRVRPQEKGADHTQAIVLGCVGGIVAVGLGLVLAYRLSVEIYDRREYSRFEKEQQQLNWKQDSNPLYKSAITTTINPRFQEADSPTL
Format: cell-based
Experimental: Integrin α4β7-MAdCAM Cell Adhesion Assay
RPMI8866 cells were resuspended at 10 million cells/ml in PBS containing […] and incubated at 37° C. for 30 min in a 50 ml tube. […] The plate was emptied by inverting and blotting on paper towels and washed manually twice with PBS. 100 μl PBS was then added to each well. […] To calculate the dose response, the fluorescence value of control wells not containing cells was subtracted from each test well.
`CC(C)C[C@@H]1NC(=O)c2ccc(-c3ccc(N4CCN(C(=O)c5ccc(C(=O)N6CCN(c7ccc(-c8ccc9cc8CNC(=O)[C@@H]8CCCN8[C@H](C(=O)NC(C)(C)C)[C@H](C)NC(=O)[C@H]([C@@H](C)O)NC(=O)[C@H](CC(=O)O)NC(=O)[C@H](CC(C)C)NC9=O)cc7)CC6)c6ccccc56)CC4)cc3)c(c2)CNC(=O)[C@@H]2CCCN2[C@H](C(=O)NC(C)(C)C)[C@H](C)NC(=O)[C@H]([C@@H](C)O)NC(=O)[C@H](CC(=O)O)NC1=O` [Compound 463] gave an IC50 of 21 nM. Work on `CC(C)C[C@@H]1NC(=O)c2ccc(-c3ccc(N4CCN(C(=O)c5cccc(C(=O)N6CCN(c7ccc(-c8ccc9cc8CNC(=O)[C@@H]8CCCN8[C@H](C(=O)NC(C)(C)C)[C@H](C)NC(=O)[C@H]([C@@H](C)O)NC(=O)[C@H](CC(=O)O)NC(=O)[C@H](CC(C)C)NC9=O)cc7)CC6)n5)CC4)cc3)c(c2)CNC(=O)[C@@H]2CCCN2[C@H](C(=O)NC(C)(C)C)[C@H](C)NC(=O)[C@H]([C@@H](C)O)NC(=O)[C@H](CC(=O)O)NC1=O` [Compound 472] yielded an IC50 of 80 nM. With `CC(C)C[C@@H]1NC(=O)c2ccc(-c3ccc(N4CCN(C(=O)CCSCCC(=O)N5CCN(c6ccc(-c7ccc8cc7CNC(=O)[C@@H]7CCCN7[C@H](C(=O)NC(C)(C)C)[C@H](C)NC(=O)[C@H]([C@@H](C)O)NC(=O)[C@H](CC(=O)O)NC(=O)[C@H](CC(C)C)NC8=O)cc6)CC5)CC4)cc3)c(c2)CNC(=O)[C@@H]2CCCN2[C@H](C(=O)NC(C)(C)C)[C@H](C)NC(=O)[C@H]([C@@H](C)O)NC(=O)[C@H](CC(=O)O)NC1=O` [Compound 473] the IC50 was 63 nM. With `CC(C)C[C@@H]1NC(=O)c2ccc(-c3ccc(N4CCN(C(=O)c5ncn(C)c5C(=O)N5CCN(c6ccc(-c7ccc8cc7CNC(=O)[C@@H]7CCCN7[C@H](C(=O)NC(C)(C)C)[C@H](C)NC(=O)[C@H]([C@@H](C)O)NC(=O)[C@H](CC(=O)O)NC(=O)[C@H](CC(C)C)NC8=O)cc6)CC5)CC4)cc3)c(c2)CNC(=O)[C@@H]2CCCN2[C@H](C(=O)NC(C)(C)C)[C@H](C)NC(=O)[C@H]([C@@H](C)O)NC(=O)[C@H](CC(=O)O)NC1=O` [Compound 476] the IC50 was 32 nM. In the case of `CC(C)C[C@@H]1NC(=O)c2ccc(-c3ccc(N4CCN(C(=O)c5cccc(-c6ccccc6C(=O)N6CCN(c7ccc(-c8ccc9cc8CNC(=O)[C@@H]8CCCN8[C@H](C(=O)NC(C)(C)C)[C@H](C)NC(=O)[C@H]([C@@H](C)O)NC(=O)[C@H](CC(=O)O)NC(=O)[C@H](CC(C)C)NC9=O)cc7)CC6)c5)CC4)cc3)c(c2)CNC(=O)[C@@H]2CCCN2[C@H](C(=O)NC(C)(C)C)[C@H](C)NC(=O)[C@H]([C@@H](C)O)NC(=O)[C@H](CC(=O)O)NC1=O` [Compound 478], the IC50 is reported as 34 nM. `CC(C)C[C@@H]1NC(=O)c2ccc(-c3ccc(N4CCN(C(=O)CC(=O)N5CCN(c6ccc(-c7ccc8cc7CNC(=O)[C@@H]7CCCN7[C@H](C(=O)NC(C)(C)C)[C@H](C)NC(=O)[C@H]([C@@H](C)O)NC(=O)[C@H](CC(=O)O)NC(=O)[C@H](CC(C)C)NC8=O)cc6)CC5)CC4)cc3)c(c2)CNC(=O)[C@@H]2CCCN2[C@H](C(=O)NC(C)(C)C)[C@H](C)NC(=O)[C@H]([C@@H](C)O)NC(=O)[C@H](CC(=O)O)NC1=O` [Compound 483] was tested, and the IC50 was 29 nM. For `CC(C)C[C@@H]1NC(=O)c2ccc(-c3ccc(N4CCN(C(=O)CCCC(=O)N5CCN(c6ccc(-c7ccc8cc7CNC(=O)[C@@H]7CCCN7[C@H](C(=O)NC(C)(C)C)[C@H](C)NC(=O)[C@H]([C@@H](C)O)NC(=O)[C@H](CC(=O)O)NC(=O)[C@H](CC(C)C)NC8=O)cc6)CC5)CC4)cc3)c(c2)CNC(=O)[C@@H]2CCCN2[C@H](C(=O)NC(C)(C)C)[C@H](C)NC(=O)[C@H]([C@@H](C)O)NC(=O)[C@H](CC(=O)O)NC1=O` [Compound 485], the IC50 was 30 nM. In the case of `CC(C)C[C@@H]1NC(=O)c2ccc(-c3ccc(N4CCN(C(=O)CCCCC(=O)N5CCN(c6ccc(-c7ccc8cc7CNC(=O)[C@@H]7CCCN7[C@H](C(=O)NC(C)(C)C)[C@H](C)NC(=O)[C@H]([C@@H](C)O)NC(=O)[C@H](CC(=O)O)NC(=O)[C@H](CC(C)C)NC8=O)cc6)CC5)CC4)cc3)c(c2)CNC(=O)[C@@H]2CCCN2[C@H](C(=O)NC(C)(C)C)[C@H](C)NC(=O)[C@H]([C@@H](C)O)NC(=O)[C@H](CC(=O)O)NC1=O` [Compound 486], the IC50 is reported as 42 nM. `CC(C)C[C@@H]1NC(=O)c2ccc(-c3ccc(N4CCN(C(=O)CCCCCCC(=O)N5CCN(c6ccc(-c7ccc8cc7CNC(=O)[C@@H]7CCCN7[C@H](C(=O)NC(C)(C)C)[C@H](C)NC(=O)[C@H]([C@@H](C)O)NC(=O)[C@H](CC(=O)O)NC(=O)[C@H](CC(C)C)NC8=O)cc6)CC5)CC4)cc3)c(c2)CNC(=O)[C@@H]2CCCN2[C@H](C(=O)NC(C)(C)C)[C@H](C)NC(=O)[C@H]([C@@H](C)O)NC(=O)[C@H](CC(=O)O)NC1=O` [Compound 487] was tested, and the IC50 was 65 nM. In the case of `CC(C)C[C@@H]1NC(=O)c2ccc(-c3ccc(N4CCN(C(=O)CCCCCCCC(=O)N5CCN(c6ccc(-c7ccc8cc7CNC(=O)[C@@H]7CCCN7[C@H](C(=O)NC(C)(C)C)[C@H](C)NC(=O)[C@H]([C@@H](C)O)NC(=O)[C@H](CC(=O)O)NC(=O)[C@H](CC(C)C)NC8=O)cc6)CC5)CC4)cc3)c(c2)CNC(=O)[C@@H]2CCCN2[C@H](C(=O)NC(C)(C)C)[C@H](C)NC(=O)[C@H]([C@@H](C)O)NC(=O)[C@H](CC(=O)O)NC1=O` [Compound 488], the IC50 is reported as 34 nM. For `CC(C)C[C@@H]1NC(=O)c2ccc(-c3ccc(N4CCN(C(=O)CCCCCCCCC(=O)N5CCN(c6ccc(-c7ccc8cc7CNC(=O)[C@@H]7CCCN7[C@H](C(=O)NC(C)(C)C)[C@H](C)NC(=O)[C@H]([C@@H](C)O)NC(=O)[C@H](CC(=O)O)NC(=O)[C@H](CC(C)C)NC8=O)cc6)CC5)CC4)cc3)c(c2)CNC(=O)[C@@H]2CCCN2[C@H](C(=O)NC(C)(C)C)[C@H](C)NC(=O)[C@H]([C@@H](C)O)NC(=O)[C@H](CC(=O)O)NC1=O` [Compound 489], the IC50 was 40 nM. In the case of `CC(C)C[C@@H]1NC(=O)c2ccc(-c3ccc(N4CCN(C(=O)[C@H]5CCCC[C@H]5C(=O)N5CCN(c6ccc(-c7ccc8cc7CNC(=O)[C@@H]7CCCN7[C@H](C(=O)NC(C)(C)C)[C@H](C)NC(=O)[C@H]([C@@H](C)O)NC(=O)[C@H](CC(=O)O)NC(=O)[C@H](CC(C)C)NC8=O)cc6)CC5)CC4)cc3)c(c2)CNC(=O)[C@@H]2CCCN2[C@H](C(=O)NC(C)(C)C)[C@H](C)NC(=O)[C@H]([C@@H](C)O)NC(=O)[C@H](CC(=O)O)NC1=O` [Compound 491], the IC50 is reported as 23 nM. Work on `CC(C)C[C@@H]1NC(=O)c2ccc(-c3ccc(N4CCN(C(=O)CC[C@@H](N)C(=O)N5CCN(c6ccc(-c7ccc8cc7CNC(=O)[C@@H]7CCCN7[C@H](C(=O)NC(C)(C)C)[C@H](C)NC(=O)[C@H]([C@@H](C)O)NC(=O)[C@H](CC(=O)O)NC(=O)[C@H](CC(C)C)NC8=O)cc6)CC5)CC4)cc3)c(c2)CNC(=O)[C@@H]2CCCN2[C@H](C(=O)NC(C)(C)C)[C@H](C)NC(=O)[C@H]([C@@H](C)O)NC(=O)[C@H](CC(=O)O)NC1=O` [Compound 495] yielded an IC50 of 30 nM.
